Data from US12053465B2, “KCC2 expression enhancing compounds and uses thereof” (Whitehead Institute for Biomedical Research, priority 2017, dated 2024).

How the values were obtained:
[1] = system: KCC2 expression (KCC2-2A-luciferase reporter); assay: KCC2-2A-luciferase reporter compound screening with RTT KCC2 reporter neurons; type: cell-based, human; conditions: for B Score: MECP2-null RTT human KCC2 reporter neurons, LINCS, SMART, ICCB libraries, Luc/CTG normalized to in-plate DMSO, hit = B score >3; for KCC2 reporter activity in RTT neurons: RTT KCC2-2A-luciferase reporter neurons vs in-plate DMSO
How it was run: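 MECP2-null RTT human neurons carrying a KCC2-2A-luciferase reporter, differentiated 4 weeks, were treated with library compounds at 10 μM for 1–2 weeks at 37 °C. Lysate luciferase was normalized to CellTiter-Glo ATP per well and expressed as fold change over in-plate DMSO. Hits were called at B score >3.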

human RTT neurons = assay: Gramicidin-perforated patch recording of EGABA in cultured human RTT neurons; type: cell-based
immature mouse neurons = assay: Gramicidin-perforated patch recording of EGABA in DIV6-7 immature mouse neurons; type: cell-based
Mecp2 mutant mice [2] = assay: Locomotion (infrared beam break) in Mecp2 mutant mouse model of RTT; type: in vivo
Experimental: (§1) We assessed the in vivo efficacy of KEECs by treating RTT disease-related symptoms such as breathing pauses and reduced locomotion (58) in a Mecp2 mutant mouse model of RTT. […] Plethysmograph and locomotion measurements were made in 4-6 week-old male Mecp2 mutant animals as a pre-treatment control time point and were then injected daily with KEECs KW-2449 or Piperine. Injection of the solvent DMSO or ethanol (EtOH) served as vehicle controls (FIG. 15A). The same two behavioral measurements in vehicle or KEEC-injected Mecp2 mutant animals were performed again two weeks after the start of daily injections. Each animal's ‘after injection’ data were compared to the ‘before injection’ level to assess behavioral changes.
Male Mecp2 mutant mice (Mecp2^−/y, e.g. the Bird model) between 4-12 weeks of age were used for the in vivo experiments. Subjects were divided into drug treated KO (Piperine/KW-2449), and vehicle treated KO (EtOH/DMSO) groups. Animals were randomly assigned to treatment arms with approximately equivalent numbers in each group.
KW-2449 stock solution was prepared at 10 mg/ml with DMSO, and Piperine stock solution at 30 mg/ml with EtOH. 20 μl of stock solution were diluted with 1 ml saline for injection. Daily drug treatments or sham injections were performed on both groups between P28 and P56, for at least two weeks, as Mecp2 mutant mice start to show symptoms around P28 and die around P60. Both following tests were performed on both groups of mice before the injections start, and repeated at the end of the injection period. The animals' performance was then compared before and after drug/vehicle injections.
To measure the subjects' nighttime locomotion, a 1-D infrared light-beam frame (ActiMot, TSE-systems, MO) was used. Animals were single-housed in new cages with the same setup as their home cages. The infrared monitor was set up for each cage and the beam crossings was recorded between 17:00 and 9:00 the next morning, where the lights were turned off between 19:00 and 7:00. The average beam crossing frequency during the night (21:00-5:00) was used as the subject's activity score, and the average beam crossing frequency after lights on (7:00-9:00) was used as the subject's day time activity score. The time periods where the mouse is stationary for >5 minutes are discarded to reduce artifact caused by the mouse sleeping. As we look at both day-time and night-time locomotion, a bonferroni correction with repeated comparison number of 2 was applied. All behavioral analyses were performed by experimenters who were blind to the treatment condition.

Mecp2 mutant mice [3] = assay: Plethysmograph breathing measurement in Mecp2 mutant mouse model of RTT; type: in vivo; conditions: male Mecp2 mutant mice; daily injection, two weeks; vs DMSO- or EtOH-injected control
Experimental: as §1
Male Mecp2 mutant mice (Mecp2^−/y, e.g. the Bird model) between 4-12 weeks of age were used for the in vivo experiments. Subjects were divided into drug treated KO (Piperine/KW-2449), and vehicle treated KO (EtOH/DMSO) groups. Animals were randomly assigned to treatment arms with approximately equivalent numbers in each group. […]
A full body plethysmograph chamber (EMKA Inc, PA) was used to measure breathing patterns. […] For each test, the subject was left in the chamber for 20 minutes, afterwards its breath pattern was recorded for the next 20 minutes, and the estimated amplitude modulation index (eAMI) was calculated from the breath trace to label breath pauses automatically. […]

## O=C1Nc2cc(Br)ccc2/C1=C1/Nc2ccccc2/C1=N\O [BIO, (2Z,3E)-6′-bromo-3-(hydroxyimino)-[2,3′-biindolinylidene]-2′-one]
[1]
  B Score: 3.42
  KCC2 reporter activity in RTT neurons: significant increase of KCC2 reporter activity

## O=C(c1ccc(/C=C/c2n[nH]c3ccccc23)cc1)N1CCNCC1 [KW-2449, (E)-(4-(2-(1H-indazol-3-yl)vinyl)phenyl)(piperazin-1-yl)methanone]
Human RTT neurons; RTT neurons transfected with KCC2 shRNA
  shift in EGABA: failed to hyperpolarize the EGABA
Human RTT neurons; cultured human RTT neurons, DMSO about −50 mV, WT −70 mV
  shift in EGABA: significant hyperpolarizing shift in EGABA to levels comparable to WT neurons
[1]
  B Score: 5.45
  KCC2 reporter activity in RTT neurons: significant increase of KCC2 reporter activity
Immature mouse neurons; DIV6-7 immature mouse neurons, untreated about −50 mV
  EGABA after treatment: about −70 mV
Immature mouse neurons; DIV6 cultured immature mouse neurons
  significant hyperpolarizing shift in EGABA: induces significant hyperpolarizing shift in EGABA
Mecp2 mutant mice [2]; Mecp2 mutant animals, vs DMSO control
  night-time locomotion (infrared beam break frequency in home cage): significantly increased night-time locomotion
Mecp2 mutant mice [2]; male Mecp2 mutant mice, daily injection, two weeks, vs DMSO- or EtOH-injected control
  locomotive activities: remarkable increase in locomotive activities
Mecp2 mutant mice [3]
  frequency of breathing pauses: significantly reduced the frequency of breathing pauses
